The results in this text go back to patent US9187415B2, “Sulfonamides as HIV protease inhibitors” (Merck Canada Inc., priority 2010, dated 2015).

Like-named read-outs stand apart in the source and are kept apart here.

Test [1] deals with T1, HIV-1 protease (wild type) (Human immunodeficiency virus type 1 group M subtype B, UniProt P04585).
T1 construct: made in house; host or cells: Escherichia coli
As to the kind of experiment: Protease Inhibition Assay (Pepcleave), inhibition of microbial expressed HIV protease. The format is biochemical. Here is the method:
Assay for Inhibition of Microbial Expressed HIV Protease
Inhibition studies of the reaction of the protease (which was expressed in Eschericia coli) with a peptide substrate [Val-Ser-Gln-Asn-(betanaphtyl)Ala-Pro-Ile-Val]. The inhibitor is first preincubated with the HIV-1 protease (wild type) enzyme in assay buffer (50 mM sodium acetate, pH 5.5, 100 mM NaCl, and 0.1% BSA) for 30 minutes at room temperature. Substrate is added to 400 micromolar in a total volume of 80 microliters containing 10 picomolar HIV-1 protease and the reaction is incubated for 1 hour at 30° C. The reaction is quenched with the addition of 120 microliters of 10% phosphoric acid. The product formation is determined after separation of product and substrate on a Zorbax Eclipse XDB-C18 column connected to an Agilent 1100 high performance liquid chromatography system with fluorescence detection (excitation 270 nanometer and emission 330 nanometer). Alternatively, the inhibitor is preincubated with enzyme and substrate as described above, but in a total volume of 20 microliters containing 20 picomolar HIV-1 protease and the reaction is incubated for 1 hour at 30° C. The reaction is quenched with the addition of 30 microliters of 1 micromolar indinavir (indinavir is also used as an internal standard), and the product formation is determined after separation of product and substrate on a Zorbax Eclipse XDB-C18 column connected to an API 4000 mass spectrometer (Applied Biosystems) with multiple reaction monitoring (transitions were 644.5/428.9 and 615.4/422.2 (M1/M3) for product and indinavir respectively). The extent of inhibition of the reaction is determined from the peak area of the products. HPLC of the products, independently synthesized, provided quantitation standards and confirmation of the product composition.
Protease Inhibition Assay (“Pepcleave”) data were collected based on the wild-type HIV-1 protease enzyme. The assay monitors the cleavage of a 8-mer peptide (VSQN[β-Nal]PIV) where the tyrosine at P1 position is replaced by β-Naphthyl-alanine. Upon cleavage of the peptide by HIV-1 protease, the product is separated from substrate by HPLC column and detected at Ex.=270 nm/Em=330 nm.

The test system of test [2] is human immunodeficiency virus type 1. Description: Acute Infection Assay (Spread). The test is classed as cell-based, HIV-1. Particulars: Human immunodeficiency virus 1; 10% FBS; mean of at least two independent experiments; read-out: Spread IC95. From the text:
Acute Infection Assay (“Spread”) data were generated in 10% FBS, and according to the methods disclosed by J. P. Vacca et al, “L-735,524: An orally bioavailable human immunodeficiency virus type 1 protease inhibitor,” Proc. Nati. Acad. Sci. USA, Vol. 91, pp. 4096-4100 (April 1994).

The mark [3] stands for this setting: wild-type HIV-1 protease, mean of at least two independent experiments, read-out: Pepcleave Enzyme inhibition IC50.

Regarding `COC(=O)N[C@H](C(=O)Nc1cnccc1SC[C@@H](CO)N(CC(C)C)S(=O)(=O)c1ccc2ncsc2c1)C(c1ccccc1)c1ccccc1` [Example 24, N-[4-({(2R)-2-[(1,3-benzothiazol-6-ylsulfonyl)(2-methylpropyl)amino]-3-hydroxypropyl}sulfanyl)pyridin-3-yl]-Nα-(methoxycarbonyl)-β-phenyl-L-phenylalaninamide], the IC50 in test [1] (setting [3]) amounted to 4.2 nM. For the same compound, the IC95 in test [2] was 1.12 µM.
Regarding `[2H]C([2H])([2H])C([2H])(C([2H])([2H])[2H])C([2H])([2H])N([C@H](CO)CSc1ccncc1NC(=O)[C@@H](NC(=O)OC)C(c1ccccc1)c1ccccc1)S(=O)(=O)c1ccc2ncsc2c1` [Example 25, N-[4-({(2R)-2-[(1,3-benzothiazol-6-ylsulfonyl)(2-methylpropyld7)amino)-3-hydroxypropyl}sulfanyl)pyridin-3-yl]-Nα-(methoxycarbonyl)-β-phenyl-L-phenylalaninamide], the IC50 in test [1] (setting [3]) stood at 4.8 nM. The IC95 in test [2] came out at 1.15 µM.
On the same counts, the results for `COC(=O)N[C@H](C(=O)Nc1cnccc1SC[C@@H](CO)N(Cc1cn(C)nc1C)S(=O)(=O)c1ccc2ncsc2c1)C(c1ccccc1)c1ccccc1` [Example 26, N-(4-{[(2R)-2-{(1,3-benzothiazol-6-ylsulfonyl)[(1,3-dimethyl-1H-pyrazol-4-yl)methyl]amino)-3-hydroxypropyl)sulfanyl}pyridin-3-yl)-Nα-(methoxycarbonyl)-β-phenyl-L-phenylalaninamide] are 0.4 nM and 1.26 µM.
As to `COC(=O)N[C@H](C(=O)Nc1cnccc1SC[C@@H](CO)N(Cc1cnoc1)S(=O)(=O)c1ccc2ncsc2c1)C(c1ccccc1)c1ccccc1` [Example 27, N-[4-({(2R)-2-[(1,3-benzothiazol-6-ylsulfonyl)(isoxazol-4-ylmethyl)amino]-3-hydroxypropyl}sulfanyl)pyridin-3-yl]-Nα-(methoxycarbonyl)-β-phenyl-L-phenylalaninamide], the IC50 in test [1] (setting [3]) came out at 6.9 nM. For the same compound, in test [2], the IC95 came out at 1.5 µM.
`COC(=O)N[C@H](C(=O)Nc1ccccc1SC[C@@H](CO)N(CCC(C)C)S(=O)(=O)c1ccc(N)cc1)C(c1ccccc1)c1ccccc1` [Example 28, N-(2-{[(2R)-2-{[(4-aminophenyl)sulfonyl](3-methylbutyl)amino}-3-hydroxypropyl]sulfanyl}phenyl)-Nα-(methoxycarbonyl)-β-phenyl-L-phenylalaninamide]: the IC50 in test [1] (setting [3]) was determined as 0.1 nM. For the same compound, in test [2], the IC95 came out at 0.194 µM.
With `COC(=O)N[C@H](C(=O)Nc1ccccc1S(=O)(=O)C[C@@H](CO)N(CCC(C)C)S(=O)(=O)c1ccc(N)cc1)C(c1ccccc1)c1ccccc1` [Example 29, N-(2-{[(2R)-2-{[(4-aminophenyl)sulfonyl)(3-methylbutyl)amino}-3-hydroxypropyl]sulfonyl}phenyl)-Nα-(methoxycarbonyl)-β-phenyl-L-phenyl alaninamide], in test [1] (setting [3]), the IC50 was 2.9 nM. Moreover, the IC95 in test [2] was found to be 1.25 µM.
On to `COC(=O)N[C@H](C(=O)Nc1ccccc1[S+]([O-])C[C@@H](CO)N(CCC(C)C)S(=O)(=O)c1ccc(N)cc1)C(c1ccccc1)c1ccccc1` (stereo partly drawn) [Example 30, N-(2-{[(2R)-2-{[(4-aminophenyl)sulfonyl](3-methylbutyl)amino}-3-hydroxypropyl]sulfinyl}phenyl)-Nα-(methoxycarbonyl)-β-phenyl-L-phenyl alaninamide], for which, in test [1] (setting [3]), the IC50 turned out to be 2.1 nM. The concentration for an effect of 95% (IC95) in test [2] stood at 1.78 µM.
As for `COC(=O)N[C@H](C(=O)Nc1cccc(C[C@@H](CO)N(CCC(C)C)S(=O)(=O)c2ccc(N)cc2)c1)C(c1ccccc1)c1ccccc1` [Example 31, N-{3-[(2S)-2-{[(4-aminophenyl)sulfonyl](3-methylbutyl)amino}-3-hydroxypropyl]phenyl}-Nα-(methoxycarbonyl)-β-phenyl-L-phenylalaninamide], in test [1] (setting [3]), the IC50 was 3.7 nM. In addition, the IC95 in test [2] was 1.26 µM.
Compound `COC(=O)N[C@H](C(=O)Nc1cccc(C[C@@H](CO)N(CCC(C)C)S(=O)(=O)c2ccc(CO)cc2)c1)C(c1ccccc1)c1ccccc1` [Example 32, N-(3-{(2S)-3-hydroxy-2-[{[4-(hydroxymethyl)phenyl]sulfonyl}(3-methylbutyl)amino]propyl}phenyl)-Nα-(methoxycarbonyl)-β-phenyl-L-phenylalaninamide] registered an IC50 in test [1] of 2.4 nM. In test [2], the concentration for an effect of 95% (IC95) is 1.74 µM.

A word on the IC50: it is the midpoint of a concentration-inhibition curve. The term IC95 denotes the concentration needed for an effect of 95%.
